Calls of active or inactive are those of the source. The rule behind the calls is not given here.
Tests used:
[1] = tested on: Human alphaherpesvirus 1; assay: Antiviral activity against HSV-1 infected in African green monkey Vero cells assessed as suppression of viral replication at 5 uM after 24 hrs by plaque reduction assay based phase contrast microscopy; format: functional
[2] = tested on: Human alphaherpesvirus 1; assay: Antiviral activity against HSV-1 infected in African green monkey Vero cells assessed as suppression of viral replication at 0.2 uM after 24 hrs by plaque reduction assay based phase contrast microscopy; format: functional
[3] = tested on: Human alphaherpesvirus 1; assay: Antiviral activity against HSV-1 infected in African green monkey Vero cells assessed as suppression of viral replication at 1 uM after 24 hrs by plaque reduction assay based phase contrast microscopy; format: functional
[4] = Therapeutic index, ratio of CC50 for African green monkey Vero cells to EC50 for HSV-1 infected in African green monkey Vero cells; format: toxicity; conditions: read-out: Ratio CC50/EC50
[5] = Cytotoxicity against African green monkey Vero cells incubated for 24 hrs by MTT assay; format: cell-based; conditions: chlorocebus sabaeus
[6] = tested on: Human alphaherpesvirus 1; assay: Antiviral activity against HSV-1 infected in African green monkey Vero cells assessed as suppression of viral replication after 24 hrs by plaque reduction assay based phase contrast microscopy; format: functional, organism-based; conditions: Human alphaherpesvirus 1, Vero
[7] = Inhibition of NTS in HSV-2 infected in African green monkey Vero cells assessed as suppression of viral replication by measuring viral titer after 24 hrs by plaque reduction assay based phase contrast microscopy; format: cell-based; conditions: Human alphaherpesvirus 2, Vero
[8] = Inhibition of NTS in HSV-1 infected in African green monkey Vero cells assessed as suppression of viral replication by measuring viral titer after 24 hrs by plaque reduction assay based phase contrast microscopy; format: cell-based; conditions: Human alphaherpesvirus 1, Vero
[9] = tested on: Human alphaherpesvirus 1; assay: Antiviral activity against HSV-1 infected in African green monkey Vero cells assessed as suppression of viral replication at 1 uM after 24 hrs by plaque reduction assay based phase contrast microscopy relative to control; format: functional
[10] = Cytotoxicity against African green monkey Vero cells incubated for 72 hrs by MTS assay; format: cell-based; conditions: chlorocebus sabaeus

Compound | log(activity) [1] | log(activity) [2] | log(activity) [3] | selectivity ratio [4] | CC50 at 24 h [5] | EC50 [6] | EC50 [7] | EC50 [8] | fold change (FC) [9] | CC50 at 72 h [10]
Cc1cc(O)c(=O)c(O)cc1C(=O)c1cccs1 | 0.92 | 0.16 | -0.06 | – | – | – | – | – | – | –
Cc1cc(O)c(=O)c(O)cc1C(=O)c1cccc(-c2cccc3ccccc23)c1 | 4.6 | 0.15 | 3.15 | – | – | – | – | – | – | –
Cc1cc(O)c(=O)c(O)cc1C(=O)c1ccc(-c2ccc3ccccc3c2)cc1 | 4.28 | 1.34 | 3.54 | – | – | – | – | – | – | –
CCCCCCCCCC(=O)c1cc(O)c(=O)c(O)cc1C | 3.78 | inactive | 0.07 | > 92 | > 100 µM | 1.1 µM | – | – | – | –
Cc1cc(O)c(=O)c(O)cc1C(=O)c1cccc([N+](=O)[O-])c1 | 4.2 | 0.23 | 0.9 | – | – | – | – | – | – | –
Cc1cc(O)c(=O)c(O)cc1C(=O)c1ccc2ccc3cccc4ccc1c2c34 | 5.76 | 0.93 | 5.01 | > 1800 | > 100 µM | 0.06 µM | – | – | – | –
Cc1cc(O)c(=O)c(O)cc1-c1ccc(-c2ccc3ccccc3c2)cc1 | 4.15 | -0.03 | 0.57 | – | – | – | – | – | – | –
CC(C)c1ccc(O)c(=O)c(O)c1 [BETA-THUJAPLICINOL] | – | – | – | – | > 100 µM | – | 1.7 µM | 2 µM | – | –
Cc1cc(O)c(=O)c(O)cc1C(=O)c1ccco1 | 4.52 | -0.1 | 0.41 | – | – | – | – | – | – | –
Cc1cc(O)c(=O)c(O)cc1C(=O)c1ccc2ccccc2c1 | 4.08 | 0.28 | 3.82 | – | – | – | – | – | >10 | –
CCCCCCCC(=O)c1cc(O)c(=O)c(O)cc1C | 4.84 | 0.13 | 0.2 | 185 | 81 µM | 0.44 µM | – | – | – | –
CC(=O)c1cc(O)c(=O)c(O)cc1C | 0.48 | inactive | inactive | > 83 | > 100 µM | 1.2 µM | – | – | – | –
Cc1cc(O)c(=O)c(O)cc1C(=O)c1cccc(-c2ccc3ccccc3c2)c1 | 4.11 | 0.14 | 3.03 | – | – | – | – | – | – | –
Cc1cc(O)c(=O)c(O)cc1C(=O)c1ccccc1 | 4.21 | inactive | 0.11 | – | – | – | – | – | – | –
COc1ccc(C(=O)c2cc(O)c(=O)c(O)cc2C)cc1 | 3.94 | 0.02 | 0.92 | – | – | – | – | – | – | –
Cc1cc(O)c(=O)c(O)cc1C(=O)c1ccc(Br)cc1 | 5.4 | 0.09 | 0.42 | – | – | – | – | – | – | –

Compound | log(activity) [1] | log(activity) [2] | log(activity) [3] | selectivity ratio [4] | CC50 at 24 h [5] | EC50 [6] | EC50 [7] | EC50 [8] | fold change (FC) [9] | CC50 at 72 h [10]
Cc1cc(O)c(=O)c(O)cc1S(=O)(=O)c1ccccc1 | 0.34 | inactive | 0.81 | – | – | – | – | – | – | –
Cc1cc(O)c(=O)c(O)cc1C(=O)C1CCCCC1 | 5.14 | 0.62 | 0.76 | 116 | 73 µM | 0.63 µM | – | – | – | –
Cc1cc(O)c(=O)c(O)cc1C(=O)C(C)C | -0.01 | inactive | inactive | 3.6 | 91 µM | 26 µM | – | – | – | –
Cc1cc(O)c(=O)c(O)cc1-c1cccc(-c2ccc3ccccc3c2)c1 | 4.1 | 0.06 | 0.66 | – | – | – | – | – | – | –
Cc1cc(O)c(=O)c(O)cc1C(=O)c1ccccc1O | 3.86 | 0.1 | 0.86 | – | – | – | – | – | – | –
CCCCCCCCCCCCCC(=O)c1cc(O)c(=O)c(O)cc1C | 4.31 | 0.36 | 1.58 | 631 | 91 µM | 0.14 µM | – | – | >10 | –
C=C(C)[C@@H]1CCc2c(c(C)cc(O)c(=O)c2O)C1 | – | – | – | – | 100 µM | – | 0.58 µM | 0.35 µM | – | –
Cc1cc(O)c(=O)c(O)cc1-c1ccc(-c2ccccc2)cc1 | 4.08 | -0.05 | 4.09 | – | > 100 µM | – | 0.21 µM | 0.18 µM | – | > 100 µM
Cc1cc(O)c(=O)c(O)cc1-c1cccc(-c2ccccc2)c1 | 4.28 | 0.02 | 4.26 | – | – | – | – | – | – | –
Cc1cc(O)c(=O)c(O)cc1C(=O)c1ccc([N+](=O)[O-])cc1 | 3.91 | 0.03 | 0.6 | – | – | – | – | – | – | –
CCCCCCCCCCCC(=O)c1cc(O)c(=O)c(O)cc1C | 4.84 | 0.29 | 3.23 | 255 | 95 µM | 0.35 µM | – | – | >10 | –
Cc1cc(O)c(=O)c(O)cc1C(=O)c1cccc(Br)c1 | 5.46 | 0.09 | 0.21 | – | – | – | – | – | – | –
Cc1cc(O)c(=O)c(O)cc1S(=O)(=O)c1ccc(-c2ccccc2)cc1 | 4.44 | inactive | -0.34 | – | – | – | – | – | – | –
Cc1cc(O)c(=O)c(O)cc1-c1cccc(-c2cccc3ccccc23)c1 | 4.02 | 0.04 | 4 | – | – | – | – | – | – | –
Cc1cc(O)c(=O)c(O)cc1C(=O)c1ccc(-c2ccccc2)cc1 | 4.72 | 0.43 | 4.86 | > 600 | > 100 µM | 0.17 µM | 0.081 µM | 0.12 µM | – | > 100 µM
CC(C)=CCc1ccc(=O)c(O)cc1C(C)C | – | – | – | – | 100 µM | – | 0.22 µM | 0.24 µM | – | –

— ChEMBL document CHEMBL4373664, “Importance of lipophilicity for potent anti-herpes simplex virus-1 activity of α-hydroxytropolones” (Medchemcomm, 2019)
